# Results as given in US6300327A, “Compositions and methods for potentiation of neurotrophin activity” (The University of Southern California, priority 1997, dated 2001).
# pKi: −log10 of the molar value. “Also recorded” adds a separate entry of the source.
# Key:
# [1] = tested on: forebrain cholinergic neurons (cultures of rat basal forebrain); test: ChAT activity in primary cultures of fetal rat basal forebrain (septal) cholinergic neurons treated with neurotrophins and K-252 compounds; type: cell-based
# Experimental: Recombinant human NGF (rhNGF), BDNF (rhBDNF), and NT-3 (rhNT-3) and K-252b were added to primary cultures of fetal rat brain neurons containing either forebrain cholinergic or midbrain dopaminergic neurons. A broad range of concentrations of K-252b were tested in presence of 50 ng/ml rhNGF, 200 ng/ml rhBDNF and 1 μg/ml rhNT-3, growth factor concentrations producing maximal trophic actions on cholinergic neurons. The trophic action was monitored by measuring the activity of ChAT, a parameter reflecting both survival and transmitter-specific differentiation of cholinergic cells.
# Primary cultures of fetal rat brain septal and mesencephalic cells were prepared in a heretofore known manner [Knusel et al., supra]. Briefly, defined areas were dissected from fetal rat brains (Wistar, E15-16, Charles River, Mass.). The septal area contained the cholinergic neurons from septum, diagonal band of Broca and nucleus basalis. The ventral mesencephalon containing the dopaminergic neurons of the substantia nigra and the ventral tegmental area was dissected and dissociated mechanically. The cells were plated in 16 mm multiwell plates precoated with polyethyleneimine (1 mg/ml, 37° C., overnight), containing 0.5 ml modified L-15 medium supplemented with 5% heat inactivated horse serum and 0.5% heat inactivated fetal calf serum. Modified L-15 was prepared [Knusel et al., "Selective and Nonselective Stimulation of Central Cholinergic and dopaminergic Development in vitro by Nerve Growth Factor, Basic Fibroblast Growth Factor, Epidermal Growth Factor, Insulin and the Insulin-like Growth Factors I and II," J. Neurosci. 10:558-570 (1990)] by adding various amino acids, vitamins, antibiotics, glucose and NaHCO3 to Leibovitz's L-15 medium (Gibco, Grand Island, N.Y.). Plating densities were 4×10^5 cells/cm^2 for basal forebrain cultures and 3×10^5 cells/cm^2 for mesencephalic cultures. Of these cells, 0.5 to 1% were cholinergic or dopaminergic, respectively. Growth factors were typically added on the second day of culture and the cells were grown for 5 or more days. For ChAT assays tissue was homogenized in 250 μl of 50 mM Tris-HCl buffer, pH 6.0 with 0.3% Triton X-100. [1-^14 C]acetylcoenzyme A (NEN) concentration was 20 μM and specific activity 4.09 Ci/mol. To measure dopamine uptake, cultures were preincubated for 5 min at 37° C. with 250 μl incubation solution (5 mM glucose, 1 mM ascorbic acid in PBS) containing 1 mM pargyline. [^3 H]dopamine (37 Ci/mmol) was then added to give a final concentration of 50 nM and the cultures were incubated for another 15 minutes. Blanks were obtained by incubating cells at 0° C.
# FIG. 1 illustrates levels of ChAT activity in cultures of rat basal forebrain treated with rhNGF, rhBDNF, or rhNT- and K-252b. Growth factors were added on the second day of culture and the cells were grown for 5 days. Growth factor concentrations producing maximal elevations of ChAT activity were used. In FIG. 1, .largecircle. represents the control; .quadrature., 50 ng/ml rhNGF; Δ, 200 ng/ml rhBDNF; and .tangle-soliddn., 1 μg/ml rhNT-3. The ChAT stimulation mediated by all three neurotrophins was inhibited by K-252b at concentrations above 200 nM. […] N=4 per data point. Error bars represent SEMs and were omitted where they would have appeared smaller than the symbol.
# These compounds were accordingly tested for possible NT-3 potentiation at lower concentrations than necessary for NGF inhibition. Culture conditions were as described in Example 1. Cultures were untreated (controls) or treated with 200 ng/ml NT-3 and increasing concentrations of the inhibitors. The findings are shown in FIG. 6, in which "Stau", "K2a", "K2b", "K57", "K58", "K59" represent, respectively, staurosporine, K-252a, K-252b, KT5720, KT5823, and KT5296. […] Staurosporine and KT5296 were ineffective.
# PC12 cells = test: Neurite outgrowth of PC12 cells; type: cell-based; conditions: 48 hours
# Experimental: PC12 cells were grown as described earlier [Kaplan et al., 1990, 1991a, b]. To assess effects on neurite outgrowth, cells were incubated for 48 hours with K-252b (50 nM) and NT-3 or NGF (50 ng/ml). Neurites were scored if they were a length of one cell body or more.
# Experiments on PC12 cells confirmed observations made on primary neuron cultures. Treatment with K-252b stimulated NT-3 induced neurite outgrowth and trk tyrosine phosphorylation in PC12 cells while inhibiting NGF induced effects. PC12 cells were incubated for 48 hours with K-252b (50 nM) and NT-3 or NGF (50 ng/ml). FIG. 4A illustrates the % cells with neurites after 48 hours incubation. Neurites were scored if they were a length of one cell body or more. PC12 cells were subsequently lysed and immunoprecipitated with anti-trk serum. trk proteins were subjected to SDS-PAGE and analyzed by immunoblotting with anti-phosphotyrosine antibodies (FIG. 4B). Lane 1, NT-3 +K-252b; lane 2, NT-3; lane 3, NGF +K-252b; lane 4, NGF. For FIG. 4C, PC12 cells were incubated for 1 hour in K-252b (50 nM or 10 μM) and with NT-3 or NGF for 5 minutes prior to lysis; other methods were the same as described for FIG. 4B. Lane 1, NT-3+10 μM K-252b; lane 2, NT-3±50 nM K-252b; lane 3, NT-3; lane 4, NGF+10 μM K-252b; lane 5, NGF+50 nM K-252b; lane 6, NGF; lane 7, untreated control.
# trk = test: Cell-free tyrosine phosphorylation of recombinant human trk expressed in Sf9 insect cells; type: biochemical; conditions: 10 μM K-252b
# Experimental: Human trk and trkB were expressed in Sf9 insect cells transfected using a baculovirus system. The trk proteins were immunoprecipitated as described above and the precipitates were incubated with 20 μCi [gamma-^32 P]ATP, 10 mM MnCl2, 20 mM Tris, pH 7.4, for 5 min at 25° C. in the presence of increasing amounts of K-252b or control solution. Phosphorylated proteins were analyzed as described for FIG. 4B. The tyrosine kinase activity of the trk and trkB proteins was activated in the absence of ligand, a common observation for receptor tyrosine kinase produced in the baculovirus system. The trk and trkB proteins were 25% pure as assayed by SDS-PAGE.
# K-252b interacts directly with the trk and trkB protein. Human trk and trkB were expressed in Sf9 insect cells transfected using a baculovirus system. trk proteins were immunoprecipitated and the precipitates were incubated with [gamma^32 P]ATP in the presence of increasing amounts of K-252b or control solution.
# Cytotoxicity in vitro = type: cell-based
# [2] = tested on: epidermal growth factor and basic fibroblast growth factor receptors; test: Receptor tyrosine phosphorylation induced by epidermal growth factor and basic fibroblast growth factor in PC12 cells; type: cell-based; conditions: K-252b
# [3] = target: cAMP-dependent protein kinase; conditions: in vitro assay systems; cited from earlier work
structure (smiles),measurement,setting,value
CC12OC(CC1(O)C(=O)O)n1c3ccccc3c3c4c(c5c6ccccc6n2c5c31)CNC4=O (centres unmarked) [K-252b],effect on ChAT actions of NGF or BDNF,[1]; 100 pM to 30 nM K-252b,without affecting
same,effect on potency and maximal efficacy of NT-3 (ChAT),[1]; 50 nM K-252b,increased both potency and maximal efficacy
same,effect on NT-3 stimulation of ChAT activity,[1]; 10-100 nM K-252b with NT-3,same stimulatory effect as NGF
same,IC100,"[1]; Rattus norvegicus, Neuron, read-out: minimal concentration required to completely abolish the ChAT responses",~2 µM
same,effect on stimulatory effects of NGF or BDNF on cholinergic neurons,[1]; low concentrations of K-252b,not potentiated
same,"effect on ChAT increases mediated by bFGF, insulin and insulin-like growth factor-1",[1]; non-neurotrophin growth factors,not affected
same,effect on trophic action of NGF on cholinergic neurons (ChAT),[1]; relatively high dosages,completely and selectively prevent
same,inhibition of action of central cholinergic neurons,"[1]; structural relatives, Example 6",inhibition
same,reduction of NGF-induced neurite outgrowth,PC12 cells; 50 nM K-252b + NGF 50 ng/ml,approximately three-fold
same,effect on NT-3 induced neurite outgrowth,"PC12 cells; 50 nM K-252b + NT-3 50 ng/ml, vs NT-3 alone",significantly more neurite outgrowth activity
same,"effect on trk tyrosine phosphorylation, cell-free system",trk,completely prevented
same,cytotoxicity,Cytotoxicity in vitro,lacked cytotoxicity; also recorded: non-toxic
same,effect on receptor responses induced by epidermal growth factor and basic fibroblast growth factor,[2],failed to influence
same,pKi,[3],7.00 to 8.00
